# Assay results: ChEMBL document CHEMBL1201862, “PubChem BioAssay data set” (2004)
#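 Interpolation was linear, between the two tested concentrations surrounding the appropriate level; five concentrations were tested over 48 hours in 96-well plates. Here, GI50 denotes the concentration required for 50% inhibition of growth.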 Activity calls are given as the source filed them. Rule as the data show it: active = GI50 up to about 1.1 µM and inactive = higher.
# What was measured:
# Test in all cases: NCI tumour cell line growth inhibition, 48 h
# 786-0 = tested on: 786-0
# A498 = tested on: A498
# A549 = tested on: A549
# CAKI-1 = tested on: CAKI-1
# CCRF-CEM = tested on: CCRF-CEM
# COLO 205 = tested on: COLO 205
# DLD-1 = tested on: DLD-1
# DMS-114 = tested on: DMS-114
# DMS-273 = tested on: DMS-273
# EKVX = tested on: EKVX
# HCC 2998 = tested on: HCC 2998
# HCT-116 = tested on: HCT-116
# HCT-15 = tested on: HCT-15
# HL-60 = tested on: HL-60
# HOP-62 = tested on: HOP-62
# HOP-92 = tested on: HOP-92
# HT-29 = tested on: HT-29
# IGROV-1 = tested on: IGROV-1
# K562 = tested on: K562
# KM-20L2 = tested on: KM-20L2
# KM12 = tested on: KM12
# LOX IMVI = tested on: LOX IMVI
# LXFL 529 = tested on: LXFL 529
# M14 = tested on: M14
# M19-MEL = tested on: M19-MEL
# MOLT-4 = tested on: MOLT-4
# Malme-3M = tested on: Malme-3M
# NCI-H23 = tested on: NCI-H23
# NCI-H460 = tested on: NCI-H460
# NCI-H522 = tested on: NCI-H522
# OVCAR-3 = tested on: OVCAR-3
# OVCAR-4 = tested on: OVCAR-4
# OVCAR-5 = tested on: OVCAR-5
# OVCAR-8 = tested on: OVCAR-8
# RPMI-8226 = tested on: RPMI-8226
# RXF 393 = tested on: RXF 393
# RXF 631 = tested on: RXF 631
# SF-268 = tested on: SF-268
# SF-295 = tested on: SF-295
# SF-539 = tested on: SF-539
# SK-MEL-28 = tested on: SK-MEL-28
# SK-MEL-2 = tested on: SK-MEL-2
# SK-MEL-5 = tested on: SK-MEL-5
# SN12C = tested on: SN12C
# SNB-19 = tested on: SNB-19
# SNB-75 = tested on: SNB-75
# SNB-78 = tested on: SNB-78
# SW-620 = tested on: SW-620
# TK-10 = tested on: TK-10
# U-251 = tested on: U-251
# UACC-257 = tested on: UACC-257
# UACC-62 = tested on: UACC-62
# UO-31 = tested on: UO-31
# XF498 = tested on: XF498
compound,measurement,setting,value
CC1CC2C3CCC4=CC(=O)C=CC4(C)C3(F)C(O)CC2(C)C1(O)C(=O)CO.Cc1nnc(NS(=O)(=O)c2ccc(/N=N/c3cc(/N=N/c4ccc(S(=O)(=O)Nc5nnc(C)s5)cc4)c4c(NC(=O)C(Cl)Cl)cccc4c3OC(=O)C(Cl)Cl)cc2)s1,GI50,786-0,25.6 µM (inactive)
same,GI50,A498,30.1 µM (inactive)
same,GI50,A549,11.6 µM (inactive)
same,GI50,CAKI-1,81.5 µM (inactive)
same,GI50,CCRF-CEM,1.08 µM (active)
same,GI50,COLO 205,12.1 µM (inactive)
same,GI50,DLD-1,16.1 µM (inactive)
same,GI50,DMS-114,18.7 µM (inactive)
same,GI50,DMS-273,11.7 µM (inactive)
same,GI50,EKVX,34.4 µM (inactive)
same,GI50,HCC 2998,21.3 µM (inactive)
same,GI50,HCT-116,15 µM (inactive)
same,GI50,HCT-15,35.5 µM
same,GI50,HL-60,9.95 µM (inactive)
same,GI50,HOP-62,88.5 µM (inactive)
same,GI50,HOP-92,51.6 µM (inactive)
same,GI50,HT-29,8.85 µM (inactive)
same,GI50,IGROV-1,24.5 µM (inactive)
same,GI50,K562,22.9 µM (inactive)
same,GI50,KM-20L2,31.3 µM (inactive)
same,GI50,KM12,23.6 µM (inactive)
same,GI50,LOX IMVI,33.3 µM (inactive)
same,GI50,LXFL 529,31.9 µM (inactive)
same,GI50,M14,28.4 µM (inactive)
same,GI50,M19-MEL,18.5 µM (inactive)
same,GI50,MOLT-4,5.53 µM (inactive)
same,GI50,Malme-3M,26.5 µM (inactive)
same,GI50,NCI-H23,12.1 µM (inactive)
same,GI50,NCI-H460,21.5 µM (inactive)
same,GI50,NCI-H522,21.6 µM (inactive)
same,GI50,OVCAR-3,19.2 µM (inactive)
same,GI50,OVCAR-4,22.6 µM (inactive)
same,GI50,OVCAR-5,27.9 µM (inactive)
same,GI50,OVCAR-8,11.6 µM (inactive)
same,GI50,RPMI-8226,< 0.01 µM (active)
same,GI50,RXF 393,21.2 µM (inactive)
same,GI50,RXF 631,34.6 µM (inactive)
same,GI50,SF-268,24 µM (inactive)
same,GI50,SF-295,42.3 µM (inactive)
same,GI50,SF-539,18.9 µM (inactive)
same,GI50,SK-MEL-28,20.8 µM (inactive)
same,GI50,SK-MEL-2,21.2 µM (inactive)
same,GI50,SK-MEL-5,22.4 µM (inactive)
same,GI50,SN12C,3.3 µM (inactive)
same,GI50,SNB-19,48.5 µM (inactive)
same,GI50,SNB-75,37.3 µM (inactive)
same,GI50,SNB-78,> 100 µM (inactive)
same,GI50,SW-620,22.6 µM (inactive)
same,GI50,TK-10,43.3 µM (inactive)
same,GI50,U-251,37.1 µM (inactive)
same,GI50,UACC-257,38.5 µM (inactive)
same,GI50,UACC-62,33 µM (inactive)
same,GI50,UO-31,46.7 µM (inactive)
same,GI50,XF498,25.8 µM (inactive)
